Data taken from patent US9580398B2, “Compounds, compositions, and methods for modulating ferroptosis and treating excitotoxic disorders” (The Trustees of Columbia University in the City of New York, priority 2012, dated 2017).
Read-outs that look alike come from different tables or passages of the source. Where a SMILES comes first, the peptide text is derived from it. [ ]: non-standard residue; d: D form. The star is where a group is joined. Nle = CCCC[C@H](N)C(=O)O; Cbz = O=C(OCc1ccccc1)*; CH2F = FC*

Legend:
[1] = tested on: HT-1080, BJeLR and Calu-1 cells; test: Modulatory profiling of small molecule cell death inhibitors against erastin; assay type: cell-based, human; conditions: erastin 10 μM, 24 hours, 10-point, 4-fold dilution series
Method: The day before the experiment, cells were seeded in black, 384-well clear bottom plates (Corning) at a density of 1,000 cells/well using a Beckman Biomek FX Workstation. All compounds (except 3-methyladenine and chloroquine, which were diluted in water) were diluted in DMSO at 250 times the final highest test concentration, and aliquoted across a 384-well plate (Greiner, Monroe, N.C.). A ten-point, 4-fold dilution series of each inhibitor in DMSO was made using a multichannel pipette. Replicates of this mother plate were stored at −20° C. […] Medium was removed from cells and replaced with 36 μL medium containing DMSO (0.1%) or erastin (10 μM final concentration). Using the Biomek FX, 4 μL were then transferred from each inhibitor daughter plate into the DMSO-containing or erastin-containing assay plates. For 3-methyladenine and chloroquine, inhibitors were prepared fresh in media at 10-fold the final concentration in the presence of DMSO or 10 μM erastin. These solutions were manually pipetted onto cells in 384-well format. Assay plates were incubated at 37° C. for 24 hours. Viability was assessed using Alamar Blue.
The modulatory effect (Me) for drug-drug interactions was computed as follows. First, plate-based background correction was performed using Alamar Blue values from empty (cell-free) wells included on each plate. Next, within each experiment, 100% viability is determined as the average Alamar Blue score for cells treated with modulator=DMSO and lethal=DMSO, and all Alamar Blue values were scaled from 0 to 1 with the DMSO×DMSO condition=1. The individual effects of each modulator and lethal (e.g. in the presence of DMSO) at all tested doses were then ascertained. […] Next, BExp was compared to the actual observed viability. […] By default, Me in DMSO-treated cells is equal to 0. […] Me values for each inhibitor-lethal drug combination were hierarchically clustered and plotted as a heatmap using the heatmaps.2 function of the gplots library in R.

[2] = tested on: ROS production in HT-1080 cells; test: Analysis of reactive oxygen species production by flow cytometry (H2DCFDA, C11-BODIPY, MitoSOX); assay type: cell-based, human
Method: The day before the experiment, 200,000 cells/well were seeded in 6-well dishes (Corning Inc., Corning, N.Y.). […] Data was collected from the FL1 (H2DCFDA, C11-BODIPY) or FL2 channel (MitoSOX). A minimum of 10,000 cells were analyzed per condition.

[3] = tested on: rat organotypic hippocampal slice culture (OHSC); test: Glutamate-induced excitotoxic cell death in organotypic hippocampal slice cultures (PI uptake); assay type: cell-based; conditions: 5 mM L-glutamate 3 hours; 24 hours after; DG, CA1, CA3; Fer-1 2 μM, CPX 5 μM, MK-801 10 μM
Method: OHSCs were cultured as previously described (Morrison et al., 2002) with approval from Columbia University's Institutional Animal Care and Use Committee (IACUC). Briefly, Sprague Dawley rat pups (P8-P10) were rapidly decapitated, and the hippocampus placed in ice-cold Gey's balanced salt solution (Sigma). 400 μm thick sections were cut using a Mcllwain tissue chopper and immediately plated on Millicell cell culture inserts (Millipore, Billerica, Mass.) in Neurobasal (Invitrogen) media supplemented with B27 (1×, Invitrogen), GlutaMAX (1 mM, Invitrogen), and D-glucose (4.5 mg/mL, Sigma) at 37° C. and 5% CO2. After 2 days in vitro (DIV), the media was changed to medium containing serum comprised of 50% DMEM (Sigma), 25% heat-inactivated horse serum (Sigma), 25% Hank's balanced salt solution (Sigma), GlutaMAX (1 mM, Invitrogen), and D-glucose (4.5 mg/mL, Sigma). Medium was changed every 2-3 days.
After 10-14 DIV, OBSCs were exposed to an excitotoxic injury consisting of a 3 hour exposure to 5 mM L-glutamate in SFM (Morrison et al., 2002). Only healthy OHSCs defined as those with less than 5% cell death in all regions of the hippocampus (DG, CA3, CA1) pre-injury were used for experiments. After the 3 hour exposure, the cultures were placed in fresh serum free media (SFM) containing 75% DMEM, 25% Hank's balanced salt solution, GlutaMAX (1 mM), D-glucose (4.5 mg/mL) until cell death was quantified at 24 hours. If drugs were added, they were added at the same time as glutamate.
Quantification of cell death has been described previously (Cater et al., 2007; Morrison et al., 2002). Brightfield images of the hippocampal cultures were taken before injury for identification of regions of interest (ROI) including the dentate gyrus (DG), CA3 and CA1. Propidium iodide (PI, Invitrogen) was used as a fluorescent signal for cell death, and images were taken before the induction of injury and 24 hours following injury. […] Percentage cell death was expressed as the number of pixels in the ROI above a threshold in the PI fluorescent image divided by the total number of pixels in the ROI.

[4] = 2,2-diphenyl-1-picrylhydrazyl (DPPH) assay, cell-free antioxidant potential; conditions: test compound 0.05 mM, absorbance at 517 nm
Method: The stable radical DPPH (Blois, 1958) was dissolved in methanol to a final concentration of 0.05 mM. 1 mL of DPPH solution was added to 2 μL of each test compound dissolved in DMSO. The final concentration of each test compound was 0.05 mM. Samples were inverted several times and allowed to incubate at room temperature for 10 minutes. Samples were then aliquoted to white 96-well solid-bottom dishes (Corning) and absorbance at 517 nm was recorded using a TECAN M200 plate reader. All values were normalized to background (methanol only). The experiment was repeated twice. Results within each trial normalized to DMSO (=1.0), then averaged across trials.

[5] = tested on: erastin (10 μM)-treated HT-1080 cells; test: Inhibition of death in erastin (10 μM)-treated HT-1080 cells, viability by Alamar Blue; assay type: cell-based, human; conditions: for EC50: Homo sapiens, HT-1080, inhibition of death in erastin (10 μM)-treated HT-1080 cells, Alamar Blue, from dose response curves; for ability to prevent erastin-induced death: erastin 10 μM, HT-1080 cells
Method: (§1) Cell viability was typically assessed in 384-well format by Alamar Blue (Invitrogen) fluorescence (ex/em 530/590) measured on a Victor3 platereader (Perkin Elmer, Waltham, Mass.). In some experiments, Trypan Blue dye exclusion counting was performed using an automated cell counter (ViCell, Beckman-Coulter Inc., Brea, Calif.). Cell viability in test conditions is reported as a percentage relative to the negative control treatment.
Flow cytometry data was analyzed using FloJo (9.3.2, Tree Star, Inc., Ashland, Oreg.). Chemical structures were drawn using ChemDraw Ultra (Cambridgesoft, Cambridge, Mass.). Computational determination of log P (Slog P function) was performed using MOE 2010.10 (Chemical Computing Group, Montreal, […].). Viability data was analyzed using Excel (Microsoft Corp., […].). Summary data and heatmaps were generated using R. Dose-response curves were computed by 4-parameter logistic regression in Prism 5.0c (GraphPad Software). Images were manipulated using Photoshop CS4 and Illustrator CS4 (Adobe, San Jose, Calif.).
The ability of various compounds disclosed herein to inhibit death in erastin (10 μM)-treated HT-1080 cells were tested. Cell viability was assessed by Alamar Blue. EC50 values (nM) were computed from dose response curves.

HT-1080 cells = test: Erastin-induced death in HT-1080 cells with co-treated inhibitors (viability, microscopy); assay type: cell-based, human; conditions: HT-1080 cells; added up to 6 hours after erastin
Method: as §1
Phase contrast images were acquired using an AMG EVOS FL (Advanced Microscopy Group) microscope equipped with a 10× phase-contrast objective. Three independent fields were acquired for each experimental condition. Representative samples from one field of view are shown.

For `CCOC(=O)[C@H]1O[C@@H]1C(=O)N[C@@H](CC(C)C)C(=O)NCCC(C)C` [E64d], the “modulation of erastin-induced death” value [1] was “not consistently modulated”.

With `COC(=O)C[C@H](NC(=O)[C@H](C)NC(=O)[C@@H](NC(=O)OCc1ccccc1)C(C)C)C(=O)CF` [z-VAD-fmk] (Cbz-Val-Ala-Asp(OMe)-CH2F) the “modulation of erastin-induced death” value [1] was “not consistently modulated”.

In the case of `C=C(C)[C@H]1Cc2c(ccc3c2O[C@@H]2COc4cc(OC)c(OC)cc4[C@@H]2C3=O)O1` [rotenone], the “MitoSOX-sensitive mitochondrial ROS production” value ([2]; HT-1080 cells, 6 hours, erastin 10 μM, rotenone 250 nM) is reported as “enhanced MitoSOX-sensitive ROS production”.

In the case of `CN1C(=O)C(Cc2c[nH]c3ccccc23)NC1=S` (stereo not shown) [necrostatin-1], the “modulation of erastin-induced death” value [1] is reported as “not consistently modulated”.

In the case of `Cc1cc(C2CCCCC2)n(O)c(=O)c1` [CPX, ciclopirox olamine], the “glutamate-induced cell death (PI uptake)” value [3] is reported as “attenuated significantly and to an almost identical extent”.

With `CCCC[C@@H](C=O)NC(=O)[C@H](CC(C)C)NC(=O)[C@H](CC(C)C)NC(C)=O` [ALLN] (Ac-Leu-Leu-[Nle]-aldehyde) the “modulation of erastin-induced death” value [1] was “not consistently modulated”.

In the case of `CCOC(=O)c1ccc(NC2CC2)c(N)c1` [SRS8-72, ethyl 3-amino-4-(cyclopropylamino)benzoate], the “intrinsic antioxidant capability (DPPH)” value [4] is reported as “retained equivalent intrinsic antioxidant capability”, the EC50 [5] is reported as 0.88 µM and the “ability to prevent erastin-induced death” value [5] is reported as “an order of magnitude less potent than Fer-1”.

With `CO/C1=C\C(C)=C\[C@@H](C)[C@@H](O)[C@@H](C)C/C(C)=C/C=C/[C@H](OC)[C@@H]([C@@H](C)[C@@H](O)[C@H](C)[C@@]2(O)C[C@@H](O)[C@H](C)[C@@H](C(C)C)O2)OC1=O` [bafilomycin A1] the “modulation of erastin-induced death” value [1] was “not consistently modulated”.

For `N#CC(=C(/N)Sc1ccccc1N)/C(C#N)=C(\N)Sc1ccccc1N` [U0126], the “modulation of erastin-induced death” value [1] was “rescued from erastin-induced death”, the “protection from death on late addition” value (HT-1080 cells) was “substantial protection from death” and the “effect on erastin-induced ROS accumulation” value [2] was “prevented the accumulation of H2DCFDA-sensitive ROS”.

For `C[C@]12N[C@H](Cc3ccccc31)c1ccccc12` [MK-801], the “glutamate-induced cell death (PI uptake)” value [3] was “attenuated significantly and to an almost identical extent”.

In the case of `CCN(CC)CCCC(C)Nc1ccnc2cc(Cl)ccc12` (stereo not shown) [chloroquine], the “modulation of erastin-induced death” value [1] is reported as “not consistently modulated”.

In the case of `Cc1c(C)c2c(c(C)c1O)CCC(C)(C(=O)O)O2` (stereo not shown) [trolox], the “modulation of erastin-induced death” value [1] is reported as “rescued from erastin-induced death”, the “protection from death on late addition” value (HT-1080 cells) is reported as “substantial protection from death” and the “effect on erastin-induced ROS accumulation” value ([2]; erastin 10 μM, HT-1080 cells, H2DCFDA, C11-BODIPY) is reported as “prevented the accumulation of H2DCFDA-sensitive ROS”.

For `CCOC(=O)c1ccc(NC2CCCCC2)c([N+](=O)[O-])c1` [SRS8-24, ethyl 4-(cyclohexylamino)-3-nitrobenzoate], the “intrinsic antioxidant capability (DPPH)” value [4] was “destroyed the antioxidant capability”, the EC50 [5] was > 10 µM and the “ability to prevent erastin-induced death” value [5] was “destroyed the antioxidant capability of Fer-1, as well as its ability to prevent erastin (10 μM)-induced death”.

In the case of `Cn1cnc(N)c2ncnc1-2` [3-methyladenine], the “modulation of erastin-induced death” value [1] is reported as “not consistently modulated”.
